Like-named read-outs stand apart in the source and are kept apart here. Starred links: 1 amine or outer side, 2 acyl side, 3 side chain; linkers in the order of their positions; H or OH if unused. Positions of bridges follow the written chain, without caps; N, C: chain ends. Non-standard residues stand in square brackets, D forms with d. Residues, ends and D or L forms follow the SMILES beside them. Triazole bridges read from a SMILES are 1,4-linked. X14 = CCOP(=O)(OCC)C(F)(F)c1ccc(C[C@H](N[*:1])C(=O)[*:2])cc1; Trp(5-F) = N[C@@H](Cc1c[nH]c2ccc(F)cc12)C(=O)O; Asp(3,3-Me2) = CC(C)(C(=O)O)[C@H](N)C(=O)O; Lys(N3) = [N-]=[N+]=NCCCC[C@H](N)C(=O)O; X4 = O=C(CCSCc1cccc(CSCCN[*:1])c1)[*:2]; mXylylene = c1cc(C[*:1])cc(C[*:2])c1; Val(3-OH) = CC(C)(O)[C@H](N)C(=O)O; NMeD = CN[C@@H](CC(=O)O)C(=O)O; αMeP = C[C@@]1(C(=O)O)CCCN1; Hpra = C#CCC[C@H](N)C(=O)O; Mpa = O=C(O)CCS
Experiments:
PCSK9 = PCSK9 (Homo sapiens (Human), UniProt Q8NBP7); assay: PCSK9 Alexa FRET Standard assay (displacement of AlexaFluor647 tagged cyclic peptide Reagent A); format: binding; settings: 0.5 nM PCSK9, 20 nM AF cyclic peptide Reagent A
Summary of the method: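 TR-FRET displacement: 0.5 nM biotinylated PCSK9 with 1.25 nM Strep-Eu and 20 nM AlexaFluor-tagged cyclic peptide (final) in 50 mM HEPES pH 7.4, 0.15 M NaCl, 5 mM CaCl2, 0.01% BSA, 0.01% P20, ≥2 h at room temperature. IC50 from sigmoidal fit, converted to Ki via peptide KD; falling Eu counts flagged false positives.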

[1] = biological target: human PCSK9 / human LDLR EGFa domain interaction (Homo sapiens (Human), UniProt Q8NBP7); assay: TR-FRET assay of inhibition of the PCSK9-LDLR protein-protein interaction; format: binding
Summary of the method: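 Half-maximal inhibitory concentrations came from 4-parameter fits of dose-response data. Proteins: biotinylated PCSK9, His-tagged LDLR EGFa, 20 nM each; labels 5 nM; 2 h, room temperature; buffer 50 mM HEPES, 150 mM NaCl, 5 mM CaCl2.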

[2] = PCSK9 Alexa FRET Standard assay, read-out: IC50
[3] = TR-FRET, 20 nM human PCSK9, 20 nM human LDLR EGFa domain, 2 hours room temperature, read-out: IC50

human PCSK9 / human LDLR EGFa domain interaction, sequence (Q8NBP7 153-692): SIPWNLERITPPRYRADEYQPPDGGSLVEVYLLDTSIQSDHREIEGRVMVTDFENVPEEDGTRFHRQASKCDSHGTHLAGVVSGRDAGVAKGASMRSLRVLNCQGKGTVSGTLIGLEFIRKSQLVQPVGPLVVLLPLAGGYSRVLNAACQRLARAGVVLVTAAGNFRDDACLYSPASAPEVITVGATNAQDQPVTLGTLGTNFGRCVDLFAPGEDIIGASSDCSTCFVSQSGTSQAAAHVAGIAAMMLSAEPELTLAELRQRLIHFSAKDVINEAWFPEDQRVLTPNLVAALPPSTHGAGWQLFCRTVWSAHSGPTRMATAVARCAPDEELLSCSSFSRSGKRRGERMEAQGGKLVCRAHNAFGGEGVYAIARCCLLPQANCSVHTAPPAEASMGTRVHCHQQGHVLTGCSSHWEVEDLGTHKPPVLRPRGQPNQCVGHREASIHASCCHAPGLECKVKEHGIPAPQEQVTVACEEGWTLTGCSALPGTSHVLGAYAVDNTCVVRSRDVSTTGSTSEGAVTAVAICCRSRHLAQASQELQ
human PCSK9 / human LDLR EGFa domain interaction, sequence (Q8NBP7 31-152 partner): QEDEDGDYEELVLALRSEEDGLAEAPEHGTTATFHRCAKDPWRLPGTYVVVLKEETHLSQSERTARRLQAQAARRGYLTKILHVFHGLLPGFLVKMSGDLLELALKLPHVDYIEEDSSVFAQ
PCSK9, sequence (Q8NBP7 153-692): as the sequence (Q8NBP7 153-692) above

Structure (SMILES): CC(C)(O)[C@@H]1NC(=O)CCSCc2cccc(c2)CSC[C@@H](C(N)=O)NC(=O)[C@]2(C)CCCN2C(=O)[C@H](Cc2ccc(O)cc2)NC(=O)[C@H](Cc2cnc[nH]2)NC(=O)[C@H](CC(=O)O)NC(=O)[C@H](Cc2c[nH]c3ccc(F)cc23)NC(=O)[C@H](Cc2c[nH]c3ccc(F)cc23)NC(=O)CNC1=O [Compound 374] ([Mpa][Val(3-OH)]G[Trp(5-F)][Trp(5-F)]DHY[αMeP]C-NH2; linker 1-10 via mXylylene)
- IC50 (PCSK9; [2]): 100 to 1000 nM
- IC50 [1, 3]: 0.1 to 100 nM

Structure (SMILES): COc1ccc(C[C@@H]2NC(=O)[C@@H]3CCCC(=O)N[C@H]4C[C@@H](C(=O)N3)N(C4)C(=O)[C@H](Cc3c[nH]c4ccc(F)cc34)NC(=O)[C@H](Cc3c[nH]c4ccc(F)cc34)NC(=O)[C@@H](C)NC(=O)[C@H](C)NCCSCc3ccc(cc3)CSCCNC(=O)[C@]3(C)CCCN3C2=O)cc1 [Compound 519]
- IC50 (PCSK9; [2]): 1000 to 12100 nM
- IC50 [1, 3]: 1000 to 12100 nM

Structure (SMILES): C[C@H]1NC(=O)[C@H](C(C)(C)C(=O)O)NC(=O)[C@H](Cc2c[nH]c3ccc(F)cc23)NC(=O)[C@H](Cc2c[nH]c3ccc(F)cc23)NC(=O)CNC(=O)[C@H](CCCCN)NC(=O)CCSCc2cccc(c2)CSC[C@@H](C(N)=O)NC(=O)[C@]2(C)CCCN2C(=O)[C@H](Cc2ccc(O)cc2)NC1=O [Compound 055] ([Mpa]KG[Trp(5-F)][Trp(5-F)][Asp(3,3-Me2)][dA]Y[αMeP]C-NH2; linker 1-10 via mXylylene)
- IC50 (PCSK9; [2]): 21000 to 50000 nM
- IC50 [1, 3]: 1000 to 12100 nM

Structure (SMILES): C[C@@H](O)[C@@H]1NC(=O)[C@H](Cc2c[nH]c3ccc(F)cc23)NC(=O)[C@H](Cc2c[nH]c3ccc(F)cc23)NC(=O)CNC(=O)[C@H](CCCCN)NC(=O)CCSCc2cccc(c2)CSC[C@@H](C(N)=O)NC(=O)[C@@H]2CCCN2C(=O)[C@H](Cc2ccc(O)cc2)NC(=O)[C@H](Cc2c[nH]cn2)NC1=O [Compound 224] ([Mpa]KG[Trp(5-F)][Trp(5-F)]THYPC-NH2; linker 1-10 via mXylylene)
- IC50 (PCSK9; [2]): 100 to 1000 nM
- IC50 [1, 3]: 100 to 1000 nM

Structure (SMILES): CN1C(=O)[C@H](Cc2c[nH]c3ccc(F)cc23)NC(=O)[C@H](Cc2c[nH]c3ccc(F)cc23)NC(=O)CNC(=O)[C@H](CCCCN)NC(=O)CCSCc2cccc(c2)CSC[C@@H](C(N)=O)NC(=O)[C@@H]2CCCN2C(=O)[C@H](Cc2ccc(O)cc2)NC(=O)[C@H](Cc2cnc[nH]2)NC(=O)[C@@H]1CC(=O)O [Compound 171] ([Mpa]KG[Trp(5-F)][Trp(5-F)][NMeD]HYPC-NH2; linker 1-10 via mXylylene)
- IC50 (PCSK9; [2]): 100 to 1000 nM
- IC50 [1, 3]: 0.1 to 100 nM

Structure (SMILES): CC(=O)N[C@H]1CCCCn2cc(nn2)CC[C@@H](C(N)=O)NC(=O)[C@]2(C)CCCN2C(=O)[C@H](Cc2ccc(O)cc2)NC(=O)[C@H](Cc2cnc[nH]2)NC(=O)[C@H](CC(=O)O)NC(=O)[C@H](Cc2c[nH]c3ccc(F)cc23)NC(=O)[C@H](Cc2c[nH]c3ccc(F)cc23)NC(=O)CNC(=O)[C@H](C)NC1=O [Compound 332] (Ac-[Lys(N3)]AG[Trp(5-F)][Trp(5-F)]DHY[αMeP][Hpra]-NH2; triazole 1-10)
- IC50 (PCSK9; [2]): 100 to 1000 nM
- IC50 [1, 3]: 0.1 to 100 nM

Structure (SMILES): CC(=O)N[C@H]1CCc2cn(nn2)CCCC[C@@H](C(N)=O)NC(=O)[C@]2(C)CCCN2C(=O)[C@H](Cc2ccc(O)cc2)NC(=O)[C@H](Cc2cnc[nH]2)NC(=O)[C@H](CC(=O)O)NC(=O)[C@H](Cc2c[nH]c3ccc(F)cc23)NC(=O)[C@H](Cc2c[nH]c3ccc(F)cc23)NC(=O)CNC(=O)[C@H](C)NC1=O [Compound 339] (Ac-[Hpra]AG[Trp(5-F)][Trp(5-F)]DHY[αMeP][Lys(N3)]-NH2; triazole 1-10)
- IC50 (PCSK9; [2]): 1000 to 12100 nM
- IC50 [1, 3]: 1000 to 12100 nM

Structure (SMILES): CCOP(=O)(OCC)C(F)(F)c1ccc(C[C@@H]2NC(=O)[C@H]([C@@H](C)O)NC(=O)[C@@H]3CCCN3C(=O)[C@H](Cc3c[nH]c4ccc(F)cc34)NC(=O)[C@H](Cc3c[nH]c4ccc(F)cc34)NC(=O)[C@@H](C)NC(=O)[C@H](CCCCN)NC(=O)CCSCc3cccc(c3)CSCCNC(=O)[C@]3(C)CCCN3C2=O)cc1 [Compound 131] (cyclo(K[dA][Trp(5-F)][Trp(5-F)]PT[X14][αMeP][X4]))
- IC50 (PCSK9; IC50, PCSK9 Alexa FRET Standard assay): 1000 to 12100 nM
- IC50 [1]: 100 to 1000 nM

Reference: US11530244B2, “Cyclic polypeptides for PCSK9 inhibition” (priority 2018, dated 2022)
